Measured values published in ChEMBL document CHEMBL3588788, “Structure-activity relationship of hybrids of Cinchona alkaloids and bile acids with in vitro antiplasmodial and antitrypanosomal activities” (Eur J Med Chem, 2015).

Legend:
Plasmodium falciparum [1] = experiment: Antiplasmodial activity against Plasmodium falciparum 3D7 assessed as inhibition of parasite viability at 20 ug/ml by parasite lactate dehydrogenase assay; format: functional
[2] = Cytotoxicity against human WI38 cells assessed as inhibition of cell growth at 20 ug/ml by MTT assay; format: cell-based, WI-38
[3] = test system: Trypanosoma brucei brucei; experiment: Antitrypanosomal activity against Trypanosoma brucei brucei Lister 427 bloodstream forms assessed as inhibition of parasite growth at 100 ug/ml by microtiter plate based assay; format: functional
[4] = test system: Trypanosoma brucei brucei; experiment: Antitrypanosomal activity against Trypanosoma brucei brucei Lister 427 bloodstream forms by microtiter plate based assay; format: functional, organism-based
[5] = Cytotoxicity against human WI38 cells assessed as inhibition of cell growth at 100 ug/ml by MTT assay; format: cell-based, WI-38
Plasmodium falciparum [6] = experiment: Antiplasmodial activity against Plasmodium falciparum 3D7 assessed as inhibition of parasite viability at 100 ug/ml by parasite lactate dehydrogenase assay; format: functional
Plasmodium falciparum [7] = experiment: Antiplasmodial activity against Plasmodium falciparum 3D7 assessed as reduction in parasite viability by parasite lactate dehydrogenase assay; format: functional, organism-based
[8] = test system: Trypanosoma brucei brucei; experiment: Antitrypanosomal activity against Trypanosoma brucei brucei Lister 427 bloodstream forms assessed as inhibition of parasite growth at 20 ug/ml by microtiter plate based assay; format: functional
[9] = Cytotoxicity against human WI38 cells by MTT assay; format: cell-based, WI-38
in vitro = conditions: human, WI38 cells
Description: Selectivity index, ratio of IC50 against human WI38 cells to IC50 for Trypanosoma brucei brucei Lister 427 bloodstream forms

Plasmodium falciparum [10] = experiment: Potency index, ratio of IC50 for QN to IC50 for test compound against Plasmodium falciparum 3D7 by parasite lactate dehydrogenase assay; format: functional
[11] = Selectivity index, ratio of IC50 against human WI38 cells to IC50 for Plasmodium falciparum 3D7; format: toxicity, cell-based, WI-38; conditions: read-out: Ratio IC50
[12] = test system: Trypanosoma brucei brucei; experiment: Potency index, ratio of IC50 for QN to IC50 for test compound against Trypanosoma brucei brucei Lister 427 bloodstream forms by microtiter plate based assay; format: functional
[13] = Homo sapiens, WI-38, read-out: IC50

| Structure (SMILES) | inhibition at 20 µg/mL (Plasmodium falciparum [1]) | inhibition at 20 ug/ml [2] | inhibition at 100 µg/mL [3] | IC50 [4] | inhibition at 100 ug/ml [5] | inhibition at 100 µg/mL (Plasmodium falciparum [6]) | IC50 (Plasmodium falciparum [7]) | inhibition at 20 µg/mL [8] | IC50 [9, 13] | selectivity ratio (in vitro) | Ratio IC50 (Plasmodium falciparum [10]) | selectivity ratio [11] | Ratio IC50 [12] | IC50 ([9]; wi-38) |
| --- | --- | --- | --- | --- | --- | --- | --- | --- | --- | --- | --- | --- | --- | --- |
| CC(=O)O[C@@H]1CC[C@]2(C)[C@H]3CC[C@]4(C)[C@@H]([C@H](C)CCC(=O)O)CC[C@H]4[C@@H]3C[C@H](OC(C)=O)[C@@H]2C1 | 73% | 20% | 100% | 16.3 µM | 98% | 97% | 32.7 µM | 81% |  |  |  |  |  |  |
| C=C[C@H]1CN2CC[C@H]1C[C@H]2[C@H](O)c1ccnc2ccc(OC)cc12 [QUININE] |  |  |  |  |  |  | 0.633 µM |  | 20.2 µM | 1 |  |  |  |  |
| C[C@H](CCC(=O)O)[C@H]1CC[C@H]2[C@@H]3CC[C@@H]4C[C@H](O)CC[C@]4(C)[C@H]3CC[C@]12C [LITHOCHOLIC ACID] | 85% | 22% | 100% |  | 98% | 100% | 26.9 µM | 5% |  |  |  |  |  |  |
| CC[C@@]1(O)C(=O)OCc2c1cc1n(c2=O)Cc2cc3ccccc3nc2-1 [CAMPTOTHECIN] |  |  |  |  |  |  |  |  | 0.23 µM |  |  |  |  |  |
| C[C@H](CCC(=O)O)[C@H]1CC[C@H]2[C@@H]3[C@H](O)[C@H](O)[C@@H]4C[C@H](O)CC[C@]4(C)[C@H]3CC[C@]12C [HYOCHOLIC ACID] | 54% | 18% | 64% |  |  | 92% | 109 µM | 7% |  |  |  |  |  |  |
| C=C[C@H]1CN2CC[C@H]1C[C@H]2[C@H](O)c1cc(CC[C@@H](C)[C@H]2CC[C@H]3[C@@H]4[C@H](OC(C)=O)[C@H](OC(C)=O)[C@@H]5C[C@H](OC(C)=O)CC[C@]5(C)[C@H]4CC[C@]23C)nc2ccc(OC)cc12 |  |  |  | 0.45 µM |  |  | 0.056 µM |  | 3.76 µM | 8.3 | 11.3 | 67.2 | 46.8 |  |
| C=C[C@H]1CN2CC[C@H]1C[C@H]2[C@H](O)c1cc(CC[C@@H](C)[C@H]2CC[C@H]3[C@@H]4CC[C@@H]5C[C@H](OC(C)=O)CC[C@]5(C)[C@H]4C[C@H](OC(C)=O)[C@]23C)nc2ccc(OC)cc12 |  |  |  | 1.47 µM |  |  | 0.197 µM |  | 4.41 µM | 3 | 3.2 | 22 | 14.4 |  |
| CC(=O)O[C@@H]1CC[C@@]2(C)[C@@H](C1)[C@@H](OC(C)=O)[C@@H](OC(C)=O)[C@@H]1[C@@H]2CC[C@]2(C)[C@@H]([C@H](C)CCC(=O)O)CC[C@@H]12 | 88% | 9% | 100% | 5.6 µM | 96% | 97% | 8.1 µM | 83% |  |  |  |  |  |  |
| C=C[C@H]1CN2CC[C@H]1C[C@@H]2[C@@H](O)c1ccnc2ccc(OC)cc12 [QUINIDINE] |  |  |  |  |  |  | 0.194 µM |  | 34.8 µM |  |  |  |  |  |
| C[C@H](CCC(=O)O)[C@H]1CC[C@H]2[C@@H]3CC[C@@H]4C[C@H](O)CC[C@]4(C)[C@H]3C[C@H](O)[C@]12C [DEOXYCHOLIC ACID] | 59% | 9% | 100% |  | 50% | 100% | 93.6 µM | 2% |  |  |  |  |  |  |
| CC(=O)O[C@@H]1CC[C@@]2(C)[C@@H](C1)C[C@@H](OC(C)=O)[C@@H]1[C@@H]2C[C@H](OC(C)=O)[C@]2(C)[C@@H]([C@H](C)CCC(=O)O)CC[C@@H]12 | 68% | 12% | 100% |  | 29% | 100% | 22.5 µM | 15% |  |  |  |  |  |  |
| C=C[C@H]1CN2CC[C@H]1C[C@@H]2[C@@H](O)c1ccnc2ccccc12 [CINCHONINE] |  |  |  | > 68 µM |  |  | 0.292 µM |  | > 68 µM |  |  | > 222 |  |  |
| CC(=O)O[C@@H]1CC[C@@]2(C)[C@@H](C1)C[C@@H](OC(C)=O)[C@@H]1[C@@H]2CC[C@]2(C)[C@@H]([C@H](C)CCC(=O)O)CC[C@@H]12 | 59% | 57% | 100% | 12.5 µM | 98% | 90% | 21 µM | 99% | 16.8 µM |  |  |  |  |  |
| C[C@H](CCC(=O)O)[C@H]1CC[C@H]2[C@@H]3C[C@H](O)[C@@H]4C[C@H](O)CC[C@]4(C)[C@H]3CC[C@]12C [HYODEOXYCHOLIC_ACID] | 67% | 21% | 94% |  | 22% | 97% | 40.9 µM | 1% |  |  |  |  |  |  |
| CC(=O)O[C@@H]1CC[C@@]2(C)[C@H](CC[C@@H]3[C@@H]2C[C@H](OC(C)=O)[C@]2(C)[C@@H]([C@H](C)CCC(=O)O)CC[C@@H]32)C1 | 82% | 10% | 100% |  | 98% | 100% | 30.5 µM | 36% |  |  |  |  |  |  |
| C=C[C@H]1CN2CC[C@H]1C[C@H]2[C@H](O)c1ccnc2ccccc12 [CINCHONIDINE] |  |  |  |  |  |  | 0.963 µM |  | > 68 µM |  |  | > 71 |  |  |
| CC(=O)O[C@@H]1CC[C@@]2(C)[C@H](CC[C@@H]3[C@@H]2CC[C@]2(C)[C@@H]([C@H](C)CCC(=O)O)CC[C@@H]32)C1 | 70% | 27% | 100% |  | 98% | 100% | 59.5 µM | 15% |  |  |  |  |  |  |
| C[C@H](CCC(=O)O)[C@H]1CC[C@H]2[C@@H]3[C@H](O)C[C@@H]4C[C@H](O)CC[C@]4(C)[C@H]3C[C@H](O)[C@]12C [CHOLIC ACID] | 56% | 6% | 24% |  |  | 83% | 133 µM | 20% |  |  |  |  |  |  |
| C[C@@H]1CC[C@H]2[C@@H](C)C(=O)O[C@@H]3O[C@@]4(C)CC[C@@H]1[C@]32OO4 [ARTEMISININ] |  |  |  |  |  |  | 0.0362 µM |  |  |  |  |  |  | Not Active |
| C[C@H](CCC(=O)O)[C@H]1CC[C@H]2[C@@H]3[C@H](O)C[C@@H]4C[C@H](O)CC[C@]4(C)[C@H]3CC[C@]12C [CHENODIOL] | 77% | 27% | 100% |  | 94% | 98% | 18.9 µM | 11% |  |  |  |  |  |  |
